What all share (assay type): in vivo, human
Assay [1] deals with married person with small very atrophic testicles. The experiment in a line: Clinical Example A: person with history of undescended testicles, impotence and infertility treated with Arimidex. The following applies: ⅛ mg (0.125 mg) daily. An excerpt: A married person with a history of undescended testicles that were surgically corrected […]. This person presented to the inventor with small very atrophic testicles, impotence (difficulty in erecting, only occasionally able to have successful intercourse only with PDE5 inhibitors) and an inability to conceive despite two years of unprotected sexual intercourse with their spouse.
All of this is a result of the improved testicular function that this relatively low dose of Arimidex provided for this patient.

Assay [2] relates to person with extremely small and atrophic testicles. The experiment in a line: Clinical Example B: person with low libido, erectile dysfunction and ejaculatory failure treated with Femara. Conditions: ⅛ to ½ of a 2.5 mg tablet. On the procedure:
A […] athletic and muscular […] complaining of low libido, erectile dysfunction and ejaculatory failure. Patient was needing to use Viagra in order to function sexually, and had no desire for sex. Sex hormones testosterone and estrogen were measured at prepubertal levels.

The subject of assay [3] is person with testicular atrophy following pelvic radiation. The experiment in a line: Clinical Example C: person with testicular decline after pelvic radiation for prostate cancer treated with Letrazole. Conditions: 1/40th of a 2.5 mg tablet daily. An excerpt: A sexually active person with biopsy confirmed prostate cancer elects to treat their cancer with pelvic radiation. Following radiation there is a progressive decline in testosterone levels, combined with testicular atrophy and increasing erectile dysfunction.

Each structure is given as a SMILES string.

As for `CC(C)(C#N)c1cc(Cn2cncn2)cc(C(C)(C)C#N)c1` [Arimidex, Anastrozole], in assay [1], the erectile function result is listed as “dramatic improvement”; the “fertility (ability to conceive)” value was “able to conceive and have a child”; the sperm counts entry was “dramatic increase”; the testicular function result is on record as “improved”. In addition, the testosterone levels entry in assay [1] was “significant increase”.
For the compound `N#Cc1ccc(C(c2ccc(C#N)cc2)n2cncn2)cc1` [Femara, Letrozole], in assay [2], the ejaculations during intercourse entry was “restoration”, the erections result is given as “improved”, the sex drive entry was “restoration” and the testicular function entry was “dramatic increase”. Moreover, the testosterone levels entry in assay [2] is “restored to the high supraphysiologic levels”. In addition, in assay [3], the testicular function result is listed as “significant improvement” and the testosterone levels entry is “dramatic rise”.

The record behind these values is patent US20140235601A1, “Use of Aromatase Inhibitor Or Estrogen Blocker For Increasing Spermatogenesis Or Testosterone Levels In Males” (priority 2011, published 2014).
